Columns and labels:
Type in all cases: cell-based, Sprague-Dawley rat
[1] = system: DRG explants; assay: Axon growth of ex vivo cultured adult DRG explants; conditions: 4 days
Experimental: Figure 3 Effect of the CH02 peptide on axon growth and neuron survival. (A) Representative images of the CH02 peptide effect on axon growth in adult primary DRG neurons. DRG neurons were obtained from adult Sprague-Dawley rats. After 12-h of culture, neurons were stimulated with CH02 or bFGF for 48 h. Axonal outgrowth was assessed by immunocytochemistry using an antibody against β-tubulin, an axonal marker. Images were acquired from random neurons by fluorescence microscopy. Scale bars = 50 μm. (B) Quantification of the longest axon length of each neuron randomly selected in three independent experiments from (A), using Image-Pro Plus 6.0 software (n = 48 for each condition; *p < 0.05, ****p < 0.0001 by one-way ANOVA with Dunnett's test; ns, not significant; mean ± SD). (C) Representative images of the CH02 effect on axon growth in ex vivo cultured adult DRG explants. The axon is shown in fluorescence (β3-tubulin) images. Scale bars = 100 μm. (D) Quantification of axon growth of DRG explants from (C) using the Neurite-J software (n=4 for each condition; *control vs. CH02; #control vs. bFGF; *p < 0.05, **p < 0.01, ***p < 0.001, #p < 0.05, ##p < 0.01 by two-way ANOVA with Dunnett's test; ns, not significant; mean ± SEM). (E) Cell cytotoxicity assay of primary DRG neurons induced by H2O2. LDH released from damaged cell membranes was detected by an LDH assay kit. The results are expressed as the mean ± SEM (**p < 0.01 by one-way ANOVA with Dunnett's test; ns, not significant, compared with the control group). […] Apoptotic neurons were detected by a TUNEL apoptosis assay kit. […] (G) Quantification of TUNEL-positive neurons from (F) (n = 3 for each condition; **p < 0.01 by one-way ANOVA with Dunnett's test; ns, not significant, compared with the control group). […]
DRG explants were harvested from adult Sprague-Dawley rats (220-250 g) and placed in a 3.5 cm dish containing 2 mL of ice-cold neurobasal medium supplemented with 1 × B27, 4 mM Glutamax and 3× penicillin/streptomycin (Pen/Strep). […] After 7 days of culture, axon growth was measured. […]

[2] = system: primary DRG neurons; assay: Axon growth of primary adult DRG neurons; conditions: 48 h
Experimental: Figure 3 Effect of the CH02 peptide on axon growth and neuron survival. (A) Representative images of the CH02 peptide effect on axon growth in adult primary DRG neurons. DRG neurons were obtained from adult Sprague-Dawley rats. After 12-h of culture, neurons were stimulated with CH02 or bFGF for 48 h. Axonal outgrowth was assessed by immunocytochemistry using an antibody against β-tubulin, an axonal marker. Images were acquired from random neurons by fluorescence microscopy. Scale bars = 50 μm. (B) Quantification of the longest axon length of each neuron randomly selected in three independent experiments from (A), using Image-Pro Plus 6.0 software (n = 48 for each condition; *p < 0.05, ****p < 0.0001 by one-way ANOVA with Dunnett's test; ns, not significant; mean ± SD). (C) Representative images of the CH02 effect on axon growth in ex vivo cultured adult DRG explants. The axon is shown in fluorescence (β3-tubulin) images. Scale bars = 100 μm. (D) Quantification of axon growth of DRG explants from (C) using the Neurite-J software (n=4 for each condition; *control vs. CH02; #control vs. bFGF; *p < 0.05, **p < 0.01, ***p < 0.001, #p < 0.05, ##p < 0.01 by two-way ANOVA with Dunnett's test; ns, not significant; mean ± SEM). (E) Cell cytotoxicity assay of primary DRG neurons induced by H2O2. LDH released from damaged cell membranes was detected by an LDH assay kit. The results are expressed as the mean ± SEM (**p < 0.01 by one-way ANOVA with Dunnett's test; ns, not significant, compared with the control group). (F) Representative TUNEL staining of apoptotic neurons induced by H2O2 in the control, CH02, and FGF2 groups. Scale bars = 50 μm. Apoptotic neurons were detected by a TUNEL apoptosis assay kit. TUNEL (green); NeuN, neuronal marker (red); DAPI (blue). (G) Quantification of TUNEL-positive neurons from (F) (n = 3 for each condition; **p < 0.01 by one-way ANOVA with Dunnett's test; ns, not significant, compared with the control group). DRG neurons were obtained from adult Sprague-Dawley rats. […]

[3] = system: primary DRG neurons; assay: TUNEL assay of DRG neuron apoptosis induced by H2O2; conditions: CH02 + inhibitor 24 h, then H2O2 12 h, n = 5
Experimental: Figure 3 Effect of the CH02 peptide on axon growth and neuron survival. (A) Representative images of the CH02 peptide effect on axon growth in adult primary DRG neurons. DRG neurons were obtained from adult Sprague-Dawley rats. After 12-h of culture, neurons were stimulated with CH02 or bFGF for 48 h. Axonal outgrowth was assessed by immunocytochemistry using an antibody against β-tubulin, an axonal marker. Images were acquired from random neurons by fluorescence microscopy. Scale bars = 50 μm. (B) Quantification of the longest axon length of each neuron randomly selected in three independent experiments from (A), using Image-Pro Plus 6.0 software (n = 48 for each condition; *p < 0.05, ****p < 0.0001 by one-way ANOVA with Dunnett's test; ns, not significant; mean ± SD). […] The axon is shown in fluorescence (β3-tubulin) images. […] (D) Quantification of axon growth of DRG explants from (C) using the Neurite-J software (n=4 for each condition; *control vs. CH02; #control vs. bFGF; *p < 0.05, **p < 0.01, ***p < 0.001, #p < 0.05, ##p < 0.01 by two-way ANOVA with Dunnett's test; ns, not significant; mean ± SEM). […] LDH released from damaged cell membranes was detected by an LDH assay kit. The results are expressed as the mean ± SEM (**p < 0.01 by one-way ANOVA with Dunnett's test; ns, not significant, compared with the control group). […] Apoptotic neurons were detected by a TUNEL apoptosis assay kit. […]

Structure (SMILES)	effect of inhibitor on CH02-enhanced neurite outgrowth, DRG explants ([1]; CH02 20 μM + BGJ398 2 μM, n = 5)	effect of inhibitor on CH02-enhanced neurite outgrowth, primary neurons ([2]; CH02 20 μM + BGJ398 2 μM, n = 100)	effect of inhibitor on protective effect of CH02 against H2O2-induced apoptosis [3]	effect of AKT/ERK inhibitor on axon growth-promoting effect of CH02, DRG explants ([1]; CH02 20 μM + inhibitor 2 μM, n = 4)	effect of AKT/ERK inhibitor on axon growth-promoting effect of CH02, DRG neurons ([2]; CH02 20 μM + inhibitor 2 μM, n = 40)
CCN1CCN(c2ccc(Nc3cc(N(C)C(=O)Nc4c(Cl)c(OC)cc(OC)c4Cl)ncn3)cc2)CC1 [BGJ398]	inhibited the enhancement of neuron outgrowth associated with CH02 treatment	inhibited the enhancement of neuron outgrowth associated with CH02 treatment			
N#CC(=C(/N)Sc1ccccc1N)/C(C#N)=C(/N)Sc1ccccc1N [U0126]			significantly reduced the protective effect of CH02 on neurons from apoptosis induced by H2O2	had little effect	had little effect

From publication PMC8581430, “Peptide ligands targeting FGF receptors promote recovery from dorsal root crush injury via AKT/mTOR signaling” (Theranostics, 2021)
